The values that follow come from patent US12528767B2, “HDAC6 inhibitors and uses thereof” (Eikonizo Therapeutics, Inc., priority 2019, dated 2026).

Read-outs that look alike come from different tables or passages of the source.

Series [1] is described as follows: Cell viability in primary rat dorsal root ganglia (DRG). It counts as cell-based.
Series [2] in a line: in vitro. The conditions noted are these: human.
Series [3] can be described thus: in vitro. The conditions noted are these: human. The source holds these as a separate data set.
The nature of series [4]: Metabolic stability in liver microsomes: Mouse CD1. The format is in vitro ADME. Conditions: 1 μM compound, 0.3 mg/mL protein, NADPH, 37° C., read-out: Mouse CD1 Liver Microsome Stability Half-life. (In general: Liver microsomes are vesicles of endoplasmic reticulum, rich in cytochrome P450 enzymes.)
The target in a further series is T1, Full length Human HDAC6 (Homo sapiens, UniProt Q9UBN7).
T1 sequence (Q9UBN7 1-1215): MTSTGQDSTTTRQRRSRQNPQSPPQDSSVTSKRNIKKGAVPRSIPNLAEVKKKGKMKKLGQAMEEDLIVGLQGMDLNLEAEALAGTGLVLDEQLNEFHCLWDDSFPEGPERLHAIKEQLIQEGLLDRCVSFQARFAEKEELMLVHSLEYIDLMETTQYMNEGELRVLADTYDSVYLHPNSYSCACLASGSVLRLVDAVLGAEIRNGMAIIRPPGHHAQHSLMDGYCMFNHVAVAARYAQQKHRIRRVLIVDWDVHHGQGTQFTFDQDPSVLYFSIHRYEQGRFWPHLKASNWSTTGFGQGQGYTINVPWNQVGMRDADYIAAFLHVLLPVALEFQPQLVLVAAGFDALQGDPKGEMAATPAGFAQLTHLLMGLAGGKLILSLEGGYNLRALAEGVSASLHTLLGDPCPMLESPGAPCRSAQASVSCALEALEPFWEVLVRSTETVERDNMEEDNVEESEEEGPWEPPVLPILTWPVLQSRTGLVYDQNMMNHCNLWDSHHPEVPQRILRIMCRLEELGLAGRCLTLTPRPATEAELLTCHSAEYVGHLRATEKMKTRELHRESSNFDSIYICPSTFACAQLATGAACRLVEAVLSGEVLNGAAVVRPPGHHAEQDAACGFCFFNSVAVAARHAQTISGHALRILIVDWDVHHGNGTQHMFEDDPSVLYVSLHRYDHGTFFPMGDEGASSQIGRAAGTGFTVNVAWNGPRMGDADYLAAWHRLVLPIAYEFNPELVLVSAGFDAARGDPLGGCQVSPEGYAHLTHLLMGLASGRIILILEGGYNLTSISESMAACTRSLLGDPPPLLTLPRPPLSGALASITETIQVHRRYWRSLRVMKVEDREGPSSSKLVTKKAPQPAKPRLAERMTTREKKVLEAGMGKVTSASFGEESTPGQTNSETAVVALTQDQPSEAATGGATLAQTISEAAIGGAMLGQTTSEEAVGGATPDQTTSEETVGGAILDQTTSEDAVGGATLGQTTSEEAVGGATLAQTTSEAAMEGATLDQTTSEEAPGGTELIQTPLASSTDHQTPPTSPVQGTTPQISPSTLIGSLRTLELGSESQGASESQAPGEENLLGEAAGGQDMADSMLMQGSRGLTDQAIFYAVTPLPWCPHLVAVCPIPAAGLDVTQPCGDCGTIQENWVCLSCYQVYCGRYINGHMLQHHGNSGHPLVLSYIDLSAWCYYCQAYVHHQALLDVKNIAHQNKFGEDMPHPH
Conditions: for Selectivity (6 v 8) (fold): ratio of HDAC8 IC50/HDAC6 IC50.

The target in a further series is T2, Human HDAC7 aa 518-end (Homo sapiens, UniProt Q8WUI4).
T2 sequence (Q8WUI4 518-952 limits assumed): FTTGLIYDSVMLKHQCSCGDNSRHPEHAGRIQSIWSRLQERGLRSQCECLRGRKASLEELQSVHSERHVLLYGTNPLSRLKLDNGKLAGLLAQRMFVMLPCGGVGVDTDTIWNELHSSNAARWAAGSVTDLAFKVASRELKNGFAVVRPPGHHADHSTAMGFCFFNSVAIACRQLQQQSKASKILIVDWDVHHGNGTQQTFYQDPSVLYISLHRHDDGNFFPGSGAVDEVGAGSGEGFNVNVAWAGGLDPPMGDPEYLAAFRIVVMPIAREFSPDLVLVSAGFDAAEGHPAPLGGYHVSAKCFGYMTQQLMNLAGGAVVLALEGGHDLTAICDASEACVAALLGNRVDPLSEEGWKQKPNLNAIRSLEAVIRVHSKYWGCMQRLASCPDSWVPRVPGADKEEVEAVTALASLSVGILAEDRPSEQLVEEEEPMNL

In another series the target is T3, Full length Human HDAC8 (Homo sapiens, UniProt Q9BY41).
T3 sequence (Q9BY41 1-377): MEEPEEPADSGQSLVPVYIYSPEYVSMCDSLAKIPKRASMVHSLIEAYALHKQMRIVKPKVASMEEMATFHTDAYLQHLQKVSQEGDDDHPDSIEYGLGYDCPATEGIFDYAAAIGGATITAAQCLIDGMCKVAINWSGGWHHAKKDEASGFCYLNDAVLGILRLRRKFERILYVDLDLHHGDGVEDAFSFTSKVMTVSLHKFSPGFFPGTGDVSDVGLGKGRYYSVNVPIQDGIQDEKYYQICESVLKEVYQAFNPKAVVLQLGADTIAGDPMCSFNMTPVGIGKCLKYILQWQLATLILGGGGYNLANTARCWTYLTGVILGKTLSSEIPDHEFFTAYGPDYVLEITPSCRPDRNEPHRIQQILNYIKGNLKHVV

For a further series, the target named is T4, Full length Human HDAC10 (Homo sapiens, UniProt Q969S8).
T4 sequence (Q969S8 1-669): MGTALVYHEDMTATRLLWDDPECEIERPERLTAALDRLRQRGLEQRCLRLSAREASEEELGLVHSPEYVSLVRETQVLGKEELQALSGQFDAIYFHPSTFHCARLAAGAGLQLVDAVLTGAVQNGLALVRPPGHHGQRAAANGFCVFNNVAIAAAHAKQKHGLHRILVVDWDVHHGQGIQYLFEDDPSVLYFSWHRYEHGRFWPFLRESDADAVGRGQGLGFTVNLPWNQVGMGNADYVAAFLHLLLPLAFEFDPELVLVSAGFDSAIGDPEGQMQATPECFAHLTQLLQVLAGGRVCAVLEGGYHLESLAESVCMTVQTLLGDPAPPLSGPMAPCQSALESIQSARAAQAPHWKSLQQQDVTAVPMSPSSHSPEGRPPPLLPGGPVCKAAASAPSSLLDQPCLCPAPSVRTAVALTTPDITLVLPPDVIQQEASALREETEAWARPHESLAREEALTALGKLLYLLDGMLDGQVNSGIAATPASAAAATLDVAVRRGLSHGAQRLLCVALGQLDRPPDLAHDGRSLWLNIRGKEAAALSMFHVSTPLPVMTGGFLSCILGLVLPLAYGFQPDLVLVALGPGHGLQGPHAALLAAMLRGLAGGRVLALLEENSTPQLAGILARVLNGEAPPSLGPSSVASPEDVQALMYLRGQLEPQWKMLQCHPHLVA

The nature of series [5]: Metabolic stability in liver microsomes: Mouse BL6. The format is in vitro ADME. Conditions: 1 μM compound, 0.3 mg/mL protein, NADPH, 37° C., read-out: Mouse BL6 Liver Microsome Stability Half-life.
Series [6] is described as follows: Plasma protein binding assay (Rapid Equilibrium Dialysis): mouse. It counts as in vitro ADME. Also on record: dose or concentration left out as unconfirmed. Conditions: pH 7.4, RED, 5 hours at 37° C. A general note: In equilibrium dialysis free small molecules cross a membrane that holds back macromolecules.
Series [7] in a line: Plasma stability assay: mouse. Conditions: 10 μM, 37° C. It counts as in vitro ADME.
For series [8], the system named is tubulin acetylation (acTubK40) in undifferentiated SH-SY5Y cells. Briefly: Tubulin acetylation in cells (Western immunoblot). Conditions: Homo sapiens, 4 hours, acetylTubulin/Tubulin ratio. The format is cell-based. As to the method: (§1) Compound EC50 Determination for Tubulin- and Histone H3 Acetylation in Cells
(§2) Estimation of the EC50 for exemplary compounds to alter target protein acetylation in undifferentiated SH-SY5Y cells was performed using standard Western immunoblotting methods. […] SH-SY5Y cells were grown to 90% confluency on sterile cell growth plates. 10 mM compound stocks prepared in DMSO and two-fold serial dilutions were prepared from the stock and applied to cells to achieve a 12-point concentration range in cell media from an upper limit of 10 μM to a lower limit of DMSO [zero compound].
(§3) Cells were incubated under normal growth conditions (37° C., 5% CO2) in the presence of compound for 4 hours, then media was aspirated and cells were rinsed two times with 1×DPBS with calcium and magnesium warmed to 37° C. Cells were frozen directly on the plates on a bed of dry ice for 5 min, then stored at −80° C. until protein extraction.
(§4) Protein extraction was performed in RIPA buffer (50 mM Tris-HCL pH 8.0, 150 mM NaCl, 0.5% sodium deoxycholate, 0.1% sodium dodecyl sulfate, 1% NP-40) supplemented with Pierce protease inhibitor mini tables (Thermofisher cat #A32953) exactly as described by the manufacturer. After thawing the plate on a bed of wet ice for 10 minutes, lysis buffer was added to each well (e.g. 100 μL per well of a 24-well plate) and cells scraped from the bottom of each well. Lysates were then sonicated over ice (40% power, 30 pulses of 1 second on, 2 seconds off), centrifuged at 16,000 g for 10 min at 4° C., and the clarified supernatant saved. Protein concentration was determined by BCA assay and at least 3 μg prepared per lane by combining lysate supernatant aliquot with 1/3 total volume of 3× gel loading buffer containing DTT (NEB Cat. #B7703S), heating for 5 minutes at 95° C., briefly centrifuging and then loading on an SDS-PAGE gel.
(§5) Proteins were resolved on a 4-20% Tris-Glycine gel and transferred to PVDF membrane using an iBlot2 dry transfer system. The membrane was then blocked for at least 30 minutes at room temperature in TBST containing 5% milk or 5% bovine serum albumin, then incubated overnight at 4° C. with a single primary antibody from the following table:
(§6) Following primary antibody incubation, membranes were washed, incubated in secondary antibody, washed and incubated in ECL prime western blotting detection reagent (Amersham #RPN223) with membrane exposure and ECL signal capture in a LI-COR Odyssey Imaging system. […] Subsequent densitometry of immunoreactive bands was performed using the ImageStudio software and Microsoft Excel resulting in the following ratios: acetylTubulin/Tubulin and acetyl histone H3K9/histone H3. Raw ratios were uploaded to GraphPad Prism v7.0 with EC50 values modeled using the variable slope equation for log-transformed data [log(agonist) vs response in Prism].

Series [9] deals with histone H3 acetylation (acH3K9) in undifferentiated SH-SY5Y cells. Briefly: Histone H3 acetylation in cells (Western immunoblot). It counts as cell-based. Conditions: Homo sapiens, 4 hours, acetyl histone H3K9/histone H3 ratio. As to the method: as §1, §2, §3, §4, §5, §6
Series [10] can be described thus: In vivo assessment of brain penetration in mice (IV 1 mg/kg, plasma and brain levels). Conditions: mouse, BL/6 mice.

One may read the CC50 as the concentration at which the toxic effect on the cells reaches its halfway point. As a reminder, the viability is a read-out of living cells in per cent, often relative to untreated cells. Take `O=C(CCCCCCC(=O)Nc1ccccc1)NO` [Vorinostat]: it took 390 nM to reach half-maximal cytotoxicity in [1] (CC50 at 72 h). In addition, the viability at 4 h, 30 µM in the series “in vitro [2]” stood at 117 ± 7.5%. For the same molecule, in the series “in vitro [3]”, the viability at 48 h, 30 µM worked out at 40.3 ± 1.8%.
For orientation: half-life means how long it takes for the measured level to halve. For orientation: IC50 means the midpoint of a concentration-inhibition curve. For `O=C(NO)c1cc(F)c2c(c1)CN(CC13CC4CC(CC(C4)C1)C3)C2` [compound 33], the half-life at 1 μM in series [4] was 7.1 min. Also, the IC50 is 1 to 100 nM against Full length Human HDAC6; 1 to 100 nM at Full length Human HDAC6 (read-out: In vitro enzymatic IC50, HDAC Paralog 6, Table 2); 1000 to 10000 nM against Human HDAC7 aa 518-end; 1000 to 10000 nM against Full length Human HDAC8; 1000 to 10000 nM at Full length Human HDAC8 (read-out: In vitro enzymatic IC50, HDAC Paralog 8, Table 2); 10000 to 100000 nM on Full length Human HDAC10. The “Selectivity (6 v 8) (fold)” value at Full length Human HDAC6 (Table 1, number) is 291.4 fold; at Full length Human HDAC6 (Table 1, range class) it was “IV (IV: >100-1000)”.
As a reminder, the fraction unbound is free concentration divided by total concentration. In general, EC50 refers to the concentration at which the effect is half-maximal. For the molecule `O=C(NO)c1ccc(CN2CCc3c([nH]c4ccccc34)C2)c(F)c1` [compound 46], in series [5], the half-life at 1 μM stood at 78.5 min. The same molecule gave a fraction unbound at 5 h in [6] of 0.062. In series [7], the “Mouse Plasma Stability (% Remaining at 120 min)” value amounted to 43.8%. Moreover, the results for the EC50 in series [8] and in [9] were 100 nM and greater than 10000 nM, respectively. For the same molecule, the concentration at 15 min in series [10] (brain, 15 min, read-out: Mouse Brain Conc (μM) at 15 min) came out at 0.15 µM; in series [10] (plasma, 15 min, read-out: Mouse Plasma Conc (μM) at 15 min) it was 0.21 µM. Moreover, the concentration at 60 min came to 0.03 µM in series [10] (brain, 60 min, read-out: Mouse Brain Conc (μM) at 60 min) and 0.05 µM in series [10] (plasma, 60 min, read-out: Mouse Plasma Conc (μM) at 60 min). Moreover, the Kp at 15 min in series [10] (brain and plasma, brain:plasma, 15 min, read-out: Mouse B:P at 15 min) was found to be 0.72. The Kp at 60 min in series [10] (brain and plasma, brain:plasma, 60 min, read-out: Mouse B:P at 60 min) stood at 0.6. For the same molecule, the IC50 was in the range of 1 to 100 nM against Full length Human HDAC6 and 100 to 1000 nM on Full length Human HDAC8. For the same molecule, the “Selectivity (6 v 8) (fold)” value at Full length Human HDAC6 (Table 1, number) was 51 fold; at Full length Human HDAC6 (Table 1, range class), “III (III: >10-100)”.
